Laboratory results published in US20030180260A1, “Immunotherapy or treating bacterial or viral infection at mucosal surfaces with probiotics, and compositions therefor” (priority 2000, published 2003).
Marks after values point to notes of the source that are not given here.

Tests used:
C albicans = test: Clearance of C. albicans in mice treated with NO synthase inhibitor; assay type: in vivo; settings: ip daily for 3 days after infection; two mouse strains (H2d); FIG. 9
Experimental: To identify the immune parameters of protection, the levels of IFN-γ were determined at various times following infection with C. albicans. […] Since nitric oxide production is associated with host defence in parasitic infection, quantitation of NO was performed following infection in two mouse strains sharing the same H2d MHC haplotype. In this experiment mice were infected with C albicans and then followed by ip injection with an inhibitor of NO synthase, by injecting NG-monomethyl-L-arginine monoacetate (MNLA) daily for 3 days after which time the clearance rate of yeasts was determined.

IL-4 = IL-4 production by OVA-stimulated spleen lymphocytes of mice fed L. acidophilus (ELISA); assay type: in vivo, C57/BI6 mice; settings: fed intragastrically, OVA-sensitised; spleen lymphocytes stimulated with OVA 5 μg/mL for 4 days; FIG. 1A
Experimental: (§1) To determine whether probiotic bacteria down-regulate Th2 and up-regulate Th1 cytokine response, C57/BI6 mice were fed intragastrically using a feeding needle, various numbers of Lactobacillus acidophilus (obtained from University of New South Wales, School of Microbiology and Immunology Culture Collection, Sydney, Australia) on consecutive days for 2 weeks after which they were sensitised with 8 μg of ovalbumin (OVA) and aluminium hydroxide in 0.2 mL phosphate-buffered saline administered by peritoneal injection. The mice were further fed ten times with L. acidophilus every two days for two weeks before they were sacrificed. Lymphocytes were isolated by teasing spleens through a sieve, washed with PBS, and resuspended at 10×10^6 One mL aliquots of the cell suspension were dispensed into wells of a 24-well flat-bottomed microtitre plate and stimulated with OVA (5 μg/mL). After incubation for 4 days the supernatants were collected and assayed for IL-4 and IFN-γ production by standard ELISA techniques using IL-4 or IFN-γ monoclonal antibody pairs. Briefly, wells of a 24-well microtitre plate were coated with a capture anti-IL-4 antibody. […] The colour development was read at 450/620 nm in an ELISA plate reader. The level of IL-4 in unknown samples was quantitated by interpolation using a standard curve. […]

IFN-γ [1] = test: IFN-γ production by OVA-stimulated spleen lymphocytes of mice fed L. acidophilus (ELISA); assay type: in vivo, C57/BI6 mice; settings: fed intragastrically, OVA-sensitised; spleen lymphocytes stimulated with OVA 5 μg/mL for 4 days; FIG. 1B
Experimental: as §1

NO = test: Nitric oxide (NO) secretion in saliva after Candida albicans challenge (Griess reaction); assay type: in vivo, DBA/2 mice; settings: oral 5×10^9 CFU, FIG. 2
Experimental: DBA/2 mice (n=3 to 5 per group) were fed Lactobacillus acidophilus and then challenged with Candida albicans as described in Example 3 below. At various times following oral infusion, saliva was collected after injection with pilocarpine to stimulate saliva flow. The concentration of NO in saliva was determined by the Griess reaction according to the method by Gree et al (1982) Anal. Biochem 126:131-138. DBA/2 mice […] male mice (n=3-5 per group) were fed intragastrically every 2 days for 2 weeks with 5×10^9 L. acidophilus in 0.2 mL PBS. One day after the last feed mice were challenged with 10^8 Candida albicans blastospores by swabbing the oral cavity using a fine-tip sterile swab. At various days after infection the number of C. albicans in the oral mucosa was determined. The oral cavity (cheek, tongue and soft palate) was completely swabbed using a fine-tipped cotton swab. The cotton swab was placed in 1 mL PBS and the yeast cells were resuspended by mixing in a vortex mixer before culture of serial 10-fold dilutions on Sabourand dextrose agar supplemented with chloramphenicol at 37° C. The results were expressed as CFU/mL (FIG. 5)

Candida albicans = test: Resistance to oral C. albicans infection following feeding with probiotic bacteria; assay type: in vivo, DBA/2 mice; settings: 5×10^9 intragastrically every 2 days for 2 weeks
Experimental: DBA/2 mice H2d male mice (n=3-5 per group) were fed intragastrically every 2 days for 2 weeks with 5×10^9 L. acidophilus in 0.2 mL PBS. One day after the last feed mice were challenged with 10^8 Candida albicans blastospores by swabbing the oral cavity using a fine-tip sterile swab. At various days after infection the number of C. albicans in the oral mucosa was determined. The oral cavity (cheek, tongue and soft palate) was completely swabbed using a fine-tipped cotton swab. The cotton swab was placed in 1 mL PBS and the yeast cells were resuspended by mixing in a vortex mixer before culture of serial 10-fold dilutions on Sabourand dextrose agar supplemented with chloramphenicol at 37° C. The results were expressed as CFU/mL (FIG. 5)

IFN-γ [2] = test: IFN-γ in saliva and cervical lymph node cells after C. albicans challenge (ELISA); assay type: in vivo, DBA/2 mice
Experimental: A further study on responses to Candida albicans infection was conducted in the model described in Example 3.
Candida antigen was prepared from freshly cultured Candida albicans by sonication in a MSE Soniprep. The sonicate was centrifuged for 10 min at 2000 g after which time the supernatant was collected and dialysed against PBS. After protein estimation, the solution was filtered sterilised and stored at −20° C. until needed.
A single cell suspension of cervical lymph node (CLN) cells was prepared by teasing lymph node tissue through a sieve. The cells were collected in RPMI 1640 medium supplemented with 10% foetal calf serum (FCS), washed twice by centrifugation and cultured at 4×10^6 cells per well in the presence of 2.5 μg/mL of Candida antigen in a 24-well plate for 3 days.
The culture supernatants were collected and assayed for IL-4, IL-12 and IFN-γ by ELISA using matched antibody pairs and recombinant cytokines as standards (Pharmingen, San Diego, Calif.). The sensitivity of the cytokine ELISA was […] and the results were expressed in net amounts from which the background was subtracted.
Samples of saliva were obtained according to the procedure described in example 2.

H influenzae = test: Clearance of non-typable H influenzae from the lungs of rats fed L acidophilus; assay type: in vivo, DA rats
Experimental: DA rats (200-250 gm, 8-10 weeks old, Animal Resource Centre, Perth, Wash.) were fed intragastrically L acidophilus in 0.75 mL PBS (2.5×10^10 per rat) or PBS alone every 2 days for 7 days at which time the rats were immuniised with formalin-killed H influenzae ([…]) administered intralumenally (see groups below). Rats continued to be fed every 2 days for 2 weeks and then boosted with 50 μL of formalin killed H influenzae (5×10^8 per rat) administered by the intratracheal route. After further feeding with L acidophilus for a further 7 days, the rats were challenged with 50 μL of live 5×10^8 H influenzae in the lung.
Immunisation Groups (5 Rats/Group):
2H influenzae (intralumenal)+H influenzae (intra-tracheal boost)
3 PBS (intralumenal)+L. acidophilus fed every 2 days
4H influenzae (intralumenal)+H influenzae (intratracheal boost)+L. acidophilus fed every 2 days
After 4 hrs post challenge, the rats were sacrificed and the levels of colonisation in the lung was examined in bronchial lavage (BAL) and lung homogenate (LH). The level of clearance was determined by a plating serial 10-fold dilutions of the lavage fluid or lung homogenate onto chocolate agar plates. The results were expressed as number of colony forming units (CFU.

Salmonella typhimurium = test: Translocation of Salmonella typhimurium to spleen in mice fed L acidophilus (VRI 011) and given killed Salmonella vaccine; assay type: in vivo, BALB/c mice
From the text: Female BALB/c mice 6-8 weeks old were obtained from the Animal Resource Centre, Perth, Wash. Lactobacillus acidophilus strain (VRI 011) and the pathogen Salmonella tyhimurium were obtained from the School of Microbiology and Immunology Type Culture Collection, University of New South Wales.
Mice were given 5 doses of L acidophilus (VRI 011) (1×10^8 cfu per dose) or PBS over a 2 week period after which time mice were immunised intragastrically with a killed oral Salmonella vaccine. Two weeks after immunisation, the mice were sacrificed and the spleens collected for enumeration of L acidophilus and S tyhimurium.

[3] = system: H. pylori (Sydney strain 1); test: Clearance of pre-established H. pylori stomach infection in mice dosed with L. acidophilus; assay type: in vivo, C57BL/6 mice
Experimental: Two groups of 5 female C57BL/6 mice were infected with H. pylon (Sydney strain 1) by administration of approx. 10^9 live H. pylori on three consecutive days (days 1, 2 and 3) by gavage. On days 28, 30, 32, 35, 37 and 39 mice were dosed by gavage with live L. acidophilus (5×10^9 in 0.2 mL water) or water (control group).
Twenty-one days later ([…]) mice were killed by pentobarbitone overdose (administered intra-peritoneally) and their stomachs removed. The stomach was dissected into two equal halves and one half was placed in 1 mL of deionised water and homogenised. Serial 10-fold dilutions of stomach homogenate were plated out on chocolate agar plates containing fungizone, vancomycin, bacitracin and nalidixic acid. After incubation for 3 days at 37° C. under microaerophilic conditions, the colonies were counted and the total number of live H. pylori in the original stomach homogenate determined.

Helicobacter pylori = test: Metronidazole therapy of H. pylori infection in mice pre-treated with probiotic; assay type: in vivo; settings: for H. pylori colonisation: L acidophilus 1×10^9 orally 3 times a week for 2 weeks, Metronidazole 0.08 mg/animal for 1 week; for % eradication: compared with saline-treated control group
Experimental: H. pylori infected mice (5 per group) were treated with Lactobacillus acidophilus (1×10^9 per animal) by oral feeding 3 times a week for 2 weeks prior to treatment with Metronidazole (0.08 mg/animal) for 1 week.

S typhimurium = test: Translocation of S typhimurium to spleen in mice fed L fermentum and vaccinated with killed oral Salmonella vaccine; assay type: in vivo, BALB/c mice; settings: for S typhimurium in spleen (±SEM): live oral challenge
Experimental: BALB/c female mice (6-8 weeks old) were fed 10^8 L fermentum VRI012 (obtained from University of New South Wales, School of Microbiology and Immunology Culture Collection, Sydney, Australia) before or co-administered with 10^8 killed S typhimurium vaccine four times over a 2 week period. Two weeks after oral administration, the mice were challenged with live S typhimurium administered by the oral route. After sacrifice, the level of colonisation with S typhimurium in the spleen was determined.

[4] = system: Non-typeable Haemophilus influenzae (NTHi); test: Clearance of NTHi from lungs of rats given a single intraduodenal dose of L. fermentum; assay type: in vivo, dark agouti (DA) rats
Experimental: Groups of 6 male, specific pathogen free, dark agouti (DA) rats were given a single dose of PBS or live L. fermentum (2.5×10^10) directly into the duodenal lumen after exposure of the intestine by laparotomy. Twenty-one days later the rats were infected intratracheally with 5×10^8 live Non-typeable Haemophilus influenzae (NTHi). Four hours later the rats were killed by pentobarbitone overdose. The lungs were lavaged with 10 mL PBS to obtain broncho-alveolar lavage fluid (BAL). The lavaged lungs were then homogenised in 10 mL of PBS. Twenty microlitres of ten-fold serial dilutions of BAL and lung homogenate (LH) were plated on chocolate agar plates and incubated in a 10% CO2 incubator at 37° C. overnight. Colonies were counted and the number of live bacteria in the BAL and LH preparations determined. The recovery of live NTHi bacteria, presented as colony forming units (CFU), was as follows: […]

`CC(=O)O.CNC(=N)NCCC[C@H](N)C(=O)O` [MNLA, NG-monomethyl-L-arginine monoacetate] was tested, and the “clearance of yeasts compared with untreated mice” value (C albicans) was “delayed clearance of yeasts”.
For “Lactobacillus acidophilus [L. acidophilus]”, the IL-4 production (IL-4) was “suppression of IL-4 production in dose-dependent manner”, the “production of IFN-γ” value (IFN-γ [1]) was “enhanced” and the “secretion of NO into saliva, early after challenge” value (NO; early after C. albicans challenge) was “increased”. The “secretion of NO into saliva, later stage” value (NO; later stage after C. albicans challenge) was “significantly reduced”, the “resistance to C. albicans infection (oral mucosa CFU) compared to mice fed PBS” value (Candida albicans; all time points, FIG. 5) was “more resistant to infection at all time points” and the “clearance of yeasts from oral cavity by day 6” value (Candida albicans; day 6) was “almost completely cleared”. The “onset of IFN-γ response after C. albicans challenge” value (IFN-γ [2]; fed mice challenged with C. albicans, controls no detectable IFN-γ until day 6) was “early response (day 2)”, the “IFN-γ response in uninfected mice” value (IFN-γ [2]; fed mice, no C. albicans challenge, FIGS. 6 and 7) was “no IFN-γ response” and the “duration of IFN-γ response after C. albicans challenge versus controls not fed” value (IFN-γ [2]; still seen in nodes at day 15 and in saliva at day 8) was “more sustained IFN-γ response”. For the same compound, the “BAL H influenzae” value (H influenzae; bronchial lavage, 4 hrs post challenge with 5×10^8 live H influenzae) was 0.7 ± 0.3 CFU/mL × 10^8, the “LH H influenzae” value (H influenzae; lung homogenate, 4 hrs post challenge with 5×10^8 live H influenzae) was 12.5 ± 5.7 CFU/mL × 10^6 and the “resistance to H influenzae infection in the lungs” value (H influenzae; rats fed L acidophilus and immunised with killed H influenzae) was “more resistance to infection”. For the same compound, the “resistance to infection, repeated oral doses versus single bolus” value (H influenzae; repeated oral feeding compared with a single bolus) was “more resistant to infection than rats given a single bolus”, the “protection against translocation of S typhimurium compared with mice fed PBS” value (Salmonella typhimurium; fed before or simultaneously with killed oral S typhimurium vaccine, live oral challenge) was “better protection against translocation” and the “effect of feeding on the vaccine-induced decrease of translocation” value (Salmonella typhimurium; feeding in addition to killed oral vaccine) was “further enhanced”. For the same compound, the “Number of H. pylori in stomach homogenate” value ([3]; 5×10^9 by gavage on days 28-39 after infection, killed day 50) was 105 ± 14 10^4 CFU, the “level of H. pylori infection of the stomach versus control mice” value ([3]; therapeutic dosing on pre-established infection) was “lower level of H. pylori infection” and the H. pylori colonisation (Helicobacter pylori) was 10.5 ± 1.4 ×10^5 CFU/animal. The “% eradication” value (Helicobacter pylori) was 58^a % and the “% eradication” value (Helicobacter pylori; listed as probiotic) was 58%.
For Lactobacillus fermentum [L. fermentum], the “S typhimurium in spleen (±SEM)” value (S typhimurium; 10^8 co-administered with 10^8 killed S typhimurium vaccine) was 4.5 ± 0.22 p < 0.05 vs Control Log CFU/g wet wt, the “S typhimurium in spleen (±SEM)” value (S typhimurium; 10^8 fed before 10^8 killed S typhimurium vaccine) was 3.8 ± 0.12 p < 0.05 vs Control Log CFU/g wet wt and the “level of translocation compared with mice fed PBS” value (S typhimurium; fed prior to immunisation or co-administered with killed S typhimurium) was “low levels of translocation”. The “LH, live NTHi recovered” value ([4]; lung homogenate, CFU, single dose 2.5×10^10 into duodenal lumen, challenge day 21, 4 hours) was 0.82 ± 0.37 p = 0.017* 10^6, the “BAL CFU, live NTHi recovered” value ([4]; single dose 2.5×10^10 into duodenal lumen, challenge day 21, 4 hours) was 0.49 ± 0.19 CFU (10^6) and the “clearance of acute NTHi respiratory infection” value ([4]; single dose delivered to the gut) was “enhanced clearance”.
`Cc1ncc([N+](=O)[O-])n1CCO` [Metronidazole, reference compound] was tested, and the H. pylori colonisation (Helicobacter pylori) was 11.4 ± 2.5 ×10^5 CFU/animal, the “% eradication” value (Helicobacter pylori) was 55^b % and the “% eradication” value (Helicobacter pylori; listed as metronidazole) was 55%.
